{"source": "patent US9814727B2", "about": "“Piperazine phenothiazine derivatives for treating spasticity” (UNIVERSITE D'AIX-MARSEILLE, priority 2014, dated 2017)", "key": {"[1]": {"test_system": "Hoffmann reflex (H-reflex)", "experiment": "Assessment of spasticity following spinal cord injury (H reflex)", "format": "in vivo, rat", "conditions": "10 μg/kg i.v.", "description": "Thoracic spinal section in rats was used as a model of SCI. Adult female Wistar Rats (225/250 g Charles River) were anaesthetized intraperitoneally with 50 mg/kg ketamine (Imalgen®, Merial, Duluth, Ga., USA) and 0.25 mg/kg Medetomidine (Domitor®, Janssen Pharmaceutica, Beerse, Belgium). The antibiotic Amoxycyline (Duphamox LA®, Pfizer, 150 mg/kg) was injected subcutaneously before the surgery. The skin was cut longitudinally over T8-T10 vertebra and a local anesthetic (2% Procaine hydrochloride, Pharmy H, Saint-Germain-en-Laye, France) was injected intramuscularly before cuting the paravertebral muscles. A laminectomy was performed at vertebral segment T9. The spinal cord was transected with microscissors at the level of the T8 spinal segment. Finally, paravertebral muscles and skin were sutured and rats were treated with buprenorphine for analgesia (1 injection before awakening from anaesthesia and 4 more injections over the next 48 h period). […]\nAt day 29 post lesion, the H reflex in the rats under ketamine anesthesia (100 mg/kg, i.p.) were measured using a pair of stainless steel needle electrodes transcutaneously inserted into the vicinity of the tibial nerve stimulation. […]\nThe H reflex was measured three times at frequencies of 0.2 Hz 1 Hz, 2 Hz and 5 Hz to have their baseline values. […] The H reflex was measured each 20 minutes, five times at frequencies of 0.2 Hz 1 Hz, 2 Hz and 5 Hz"}, "lumbar motoneurons (MNs)": {"test_system": "lumbar motoneurons (MNs)", "experiment": "Intracellular recordings of lumbar motoneurons in the in vitro spinal cord preparation (EIPSP)", "format": "cell-based, rat", "conditions": "10 μM", "source_text": "Spinal cords isolated from neonatal rats on post natal day 4 or 5 were dissected together with spinal roots. Briefly, after decapitation and evisceration, the spinal cord was exposed by dorsal laminectomy and acute removal of the dura in a cold artificial cerebrospinal fluid (ACSF; containing (in mM): 130 NaCl, 4 KCl, 3.75 CaCl2, 1.3 MgSO4, 0.58 NaH2PO4, 25 NaHCO3 and 10 glucose (all compounds were from Sigma); oxygenated with 95% O2/5% CO2, pH=7.4). The cord, from sacral segments up to T8, was then removed from the vertebral column together with peripheral roots. The preparation was then transferred to the recording chamber where it was pinned down, ventral side up, in sylgard (Dow-Corning; USA)-covered recording chamber, and continuously perfused with the ACSF solution. After removing the pia, we recorded lumbar motoneurons (MNs) intracellularly using glass microelectrodes filled with 2 M K-acetate (70 to 100-MΩ resistance). We recorded intracellular potentials in the discontinuous current-clamp (DCC) mode (Axoclamp 2B amplifier; Digidata 1200 interface; pClamp9 software; Axon Instruments, Sunnyvale, Calif., USA). We used glass suction electrode to stimulate the ipsilateral ventral funiculus 2 to 3 segments rostral to the recorded one. Such stimulations induced GABAA- and Gly-mediated Inhibitory Postsynaptic Potentials (IPSPs) in the presence of DL-2-amino-5-phosphonovaleric acid (DL-APV, 50 μM) and 6-cyano-7-nitroquinoxaline-2,3-dione (CNQX, 10 μM) (Bos et al., 2013; Boulenguez et al., 2010; Jean-Xavier et al., 2006). We recorded IPSPs at various holding potentials (500-ms-long current pulses) and collected at least 20 values for each MN. We measured and plotted amplitudes of IPSPs against holding potentials and obtained EIPSP from the regression line.\nIn the in vitro spinal cord preparation, isolated from neonatal rat, a way to investigate KCC2 function is provided by recording motoneurons (MNs) intracellularly and measuring the chloride equilibrium potential that is given by the reversal potential of inhibitory synaptic potentials (EIPSP). The more hyperpolarized the value of EIPSP, the lower the intracellular concentration of chloride ions and, as a result, the stronger the KCC2 function. The inventors have examined the effect of 10 μM Prochlorperazine (2) on EIPSP of lumbar MNs in P4-6 rats (FIG. 3). It hyperpolarized EIPSP within 5-10 min and measurements were done 20-25 min after the onset of Prochlorperazine (2) application."}, "KCC2 [2]": {"test_system": "KCC2", "experiment": "Western blot of KCC2 in total cell lysate of HEK KCC2 cells", "format": "cell-based", "conditions": "10 μM, 30 min of cell treatment, HEK KCC2 whole cell lysate", "description": "Wild-type or KCC2-expressing Human Embryonic Kidney (HEK) 293 cells (provided by Prof. Eric Delpire Department of Anesthesiology, Vanderbilt University Medical Center, Nashville, Tenn.) were grown up to 80-90% confluence in DMEM/Ham's F-12 (1:1) (Life technologies, Carlsbad, Calif., USA) supplemented with 10% FBS (Life technologies), 50 units/mL penicillin, and 50 µg/mL streptomycin (Life technologies). KCC2-expressing clones were under puromycin selection (20 μg/ml, Life technologies).\nWild-type and KCC2-expressing HEK293 cells or NSC-34 were harvested and homogenised in lysis buffer (PBS containing 1% Igepal CA-630, 0.1% SDS, 10 mM sodium pyrophosphate, 10 mM NaF, 10 mM NaVO4, 10 mM iodoacetamide and cocktail protease inhibitors and centrifugated at 18000 g for 30 minutes at 4° C. Protein concentration in supernatants was determined using DC protein assay (Bio-rad). Same amounts of total proteins were separated in 6% or 7% SDS PAGE and transferred onto PVDF membrane. Once blocked in Tris Buffer Saline 0.05% Tween 5% non-fat dry milk, membranes were probes over night at 4° C. with KCC2 antibody (1/1000 dilution, Merck-Millipore, Billerica, Mass., USA), or anti-phospho-serine940 KCC2 (1/1000 dilution, PhosphoSolutions) or anti-Actin antibody (1/500 dilution, Sigma Aldrich). […] Signal intensity was measured with the image analysis software Image lab (Bio-Rad, Hercules, Calif., USA). […]"}, "KCC2 [3]": {"test_system": "KCC2", "experiment": "Western blot of KCC2 in total cell lysate of NSC-34 KCC2 cells", "format": "cell-based", "conditions": "10 μM, 30 min of cell treatment, NSC-34 KCC2 whole cell lysate", "description": "NSC-34 wild type and KCC2 were cultured in DMEM (Life technologies, Carlsbad, Calif., USA) supplemented with 10% FBS (Life technologies), 50 units/mL penicillin, and 50 µg/mL streptomycin (Life technologies).\nWild-type and KCC2-expressing HEK293 cells or NSC-34 were harvested and homogenised in lysis buffer (PBS containing 1% Igepal CA-630, 0.1% SDS, 10 mM sodium pyrophosphate, 10 mM NaF, 10 mM NaVO4, 10 mM iodoacetamide and cocktail protease inhibitors and centrifugated at 18000 g for 30 minutes at 4° C. Protein concentration in supernatants was determined using DC protein assay (Bio-rad). Same amounts of total proteins were separated in 6% or 7% SDS PAGE and transferred onto PVDF membrane. Once blocked in Tris Buffer Saline 0.05% Tween 5% non-fat dry milk, membranes were probes over night at 4° C. with KCC2 antibody (1/1000 dilution, Merck-Millipore, Billerica, Mass., USA), or anti-phospho-serine940 KCC2 (1/1000 dilution, PhosphoSolutions) or anti-Actin antibody (1/500 dilution, Sigma Aldrich). Anti-rabbit secondary antibody HRP conjugated was used for detection in chemiluminescent system (Thermo Scientific, Waltham, Mass., USA). Signal intensity was measured with the image analysis software Image lab (Bio-Rad, Hercules, Calif., USA). […]"}}}
{"smiles": "CN1CCN(CCCN2c3ccccc3Sc3ccc(Cl)cc32)CC1", "note": "[compound 2, 2-chloro-10-[3-(4-methyl-1-piperazinyl)propyl]-10H-phenothiazine]", "values": [{"measurement": "decrease of the H reflex", "setting": "[1]; 80 min after injection, 1, 2 and 5 Hz, adult rats after SCI", "result": "~30", "unit": "%"}, {"measurement": "effect on spasticity after spinal cord injury", "setting": "[1]; 80 minutes, adult rats 4 weeks after SCI", "result": "reduces spasticity"}, {"measurement": "change of driving force (EIPSP-Vrest)", "setting": "lumbar motoneurons (MNs); 20-25 min, n=6", "result": "−3.5", "unit": "mV"}, {"measurement": "effect on resting membrane potential (Vrest)", "setting": "lumbar motoneurons (MNs); 20-25 min, n=6", "result": "no significant impact"}, {"measurement": "hyperpolarizing shift of EIPSP compared to control", "setting": "lumbar motoneurons (MNs); 20-25 min after onset of application, P4-6 rats, n=6", "result": "−3.3", "unit": "mV"}, {"measurement": "time to hyperpolarization of EIPSP", "setting": "lumbar motoneurons (MNs); P4-6 rats", "result": "5 to 10", "unit": "min"}, {"measurement": "phosphorylated KCC2 on serine 940", "setting": "KCC2 [2]", "result": "increased"}, {"measurement": "total KCC2 protein level (monomers+oligomers)", "setting": "KCC2 [2]", "result": "increased"}, {"measurement": "phosphorylated KCC2 on serine 940", "setting": "KCC2 [3]", "result": "increased"}, {"measurement": "total KCC2 protein level (monomers+oligomers)", "setting": "KCC2 [3]", "result": "increased"}]}
